Measurements reported in patent publication US20070117743A1, “New antitumoral compounds” (priority 2003, published 2007).

Key:
Format in all cases: cell-based, human
[1] = system: A-549; assay: SRB colorimetric assay of cell growth and viability, A-549; conditions: 48 hours exposure; for GI50: read-out: GI50 A-549; for CC50: read-out: LC50 A-549
Source text: (§1) The finality of this assay is to interrupt the growth of a “in vitro” tumor cell culture by means a continued exhibition of the cells to the sample to be testing.
(§2) This form of the assay employs 96 well cell culture microplates of 9 mm diameter (Faircloth, 1988; Mosmann, 1983). Most of the cell lines are obtained from American Type Culture Collection (ATCC) derived from different human cancer types.
(§3) Cells are maintained in RPMI 1640 10% FBS, supplemented with 0.1 g/l penicillin and 0.1 g/l streptomycin sulfate and then incubated at 37° C., 5% CO2 and 98% humidity. For the experiments, cells were harvested from subconfluent cultures using trypsin and resuspended in fresh medium before plating.
(§4) Cells are seeded in 96 well microtiter plates, at 5×10^3 cells per well in aliquots of 195 μL medium, and they are allowed to attach to the plate surface by growing in drug free medium for 18 hours. Afterward, samples are added in aliquots of 5 μL in a ranging from 10 to 10^−8 μg/mL, dissolved in DMSO:EtOH:PBS (0.5:0.5:99). After 48 hours exposure, the antitumor effect are measured by the SRB methodology: cells are fixed by adding 50 μL of cold 50% (wt/vol) trichloroacetic acid (TCA) and incubating for 60 minutes at 4° C. Plates are washed with deionized water and dried. One hundred μL of SRB solution (0.4% wt/vol in 1% acetic acid) is added to each microtiter well and incubated for 10 minutes at room temperature. Unbound SRB is removed by washing with 1% acetic acid. Plates are air dried and bound stain is solubilized with Tris buffer. Optical densities are read on a automated spectrophotometric plate reader at a single wavelength of 490 nm.
(§5) The values for mean+/− SD of data from triplicate wells are calculated. Some parameters for cellular responses can be calculated: GI=growth inhibition, TGI=total growth inhibition (cytostatic effect) and LC=cell killing (cytotoxic effect).

[2] = system: SK-MEL-28; assay: SRB colorimetric assay of cell growth and viability, SK-MEL-28; conditions: 48 hours exposure; for CC50: read-out: LC50 MEL-28
Source text: as §1, §2, §3, §4, §5

[3] = system: HT-29; assay: SRB colorimetric assay of cell growth and viability, HT-29; conditions: 48 hours exposure; for GI50: read-out: GI50 HT-29; for CC50: read-out: LC50 HT-29
Source text: as §1, §2, §3, §4, §5

[4] = system: LoVo; assay: SRB colorimetric assay of cell growth and viability, LoVo; conditions: 48 hours exposure; for CC50: read-out: LC50 LOVO
Source text: as §1, §2, §3, §4, §5

[5] = system: LoVo-Dox; assay: SRB colorimetric assay of cell growth and viability, LoVo-Dox; conditions: 48 hours exposure; for CC50: read-out: LC50 LOVO-DOX
Source text: as §1
A colorimetric type of assay, using sulforhodamine B (SRB) reaction has been adapted for a quantitative measurement of cell growth and viability [following the technique described by Philip Skehan, et al. (1990), New colorimetric cytotoxicity assay for anticancer drug screening, J. Natl. Cancer Inst., 82:1107-1112].
as §2, §3, §4, §5

[6] = system: DU-145; assay: SRB colorimetric assay of cell growth and viability, DU-145; conditions: 48 hours exposure
Source text: as §1, §2, §3, §4, §5

[7] = system: IGROV-1; assay: SRB colorimetric assay of cell growth and viability, IGROV-1; conditions: 48 hours exposure
Source text: as §1, §2, §3, §4, §5

[8] = system: IGROV-ET; assay: SRB colorimetric assay of cell growth and viability, IGROV-ET; conditions: 48 hours exposure; for CC50: read-out: LC50 IGROV-ET
Source text: as §1, §2, §3, §4, §5

[9] = system: HeLa; assay: SRB colorimetric assay of cell growth and viability, HeLa; conditions: 48 hours exposure; for CC50: read-out: LC50 HELA
Source text: as §1, §2, §3, §4, §5

[10] = system: HeLa-APL; assay: SRB colorimetric assay of cell growth and viability, HeLa-APL; conditions: 48 hours exposure; for CC50: read-out: LC50 HELA-APL
Source text: as §1, §2, §3, §4, §5

[11] = system: K-562; assay: SRB colorimetric assay of cell growth and viability, K-562; conditions: 48 hours exposure; for CC50: read-out: LC50 K-562
Source text: as §1, §2, §3, §4, §5

[12] = system: PANC-1; assay: SRB colorimetric assay of cell growth and viability, PANC-1; conditions: 48 hours exposure; for CC50: read-out: LC50 PANC-1
Source text: as §1, §2, §3, §4, §5

SMILES	TGI A-549 [1] [Molar]	GI50 [1] [nM]	CC50 [1] [nM]	GI50 [2] [nM]	TGI MEL-28 [2] [Molar]	CC50 [2] [nM]	TGI HT-29 [3] [Molar]	GI50 [3] [nM]	CC50 [3] [nM]	GI50 [4] [nM]	TGI LOVO [4] [Molar]	CC50 [4] [nM]	GI50 [5] [nM]	TGI LOVO-DOX [5] [Molar]	CC50 [5] [nM]	GI50 [6] [nM]	LC50 (concentration causing 50% net cell kill) [6] [nM]	TGI DU-145 [6] [Molar]	GI50 [7] [nM]	LC50 (concentration causing 50% net cell killing) [7] [nM]	further results
C/C=C1\NC(=O)[C@H](Cc2ccccc2)NC(=O)[C@@H](C(C)C)NC(=O)[C@@H]([C@@H](C)CC)NC(=O)[C@H](NC(=O)[C@H](NC(=O)[C@H](CCCN)NC(=O)[C@H]2CCCN2C(=O)[C@H](NC(=O)[C@@H](NC(=O)[C@@H](NC(=O)[C@@H](CC(C)C)NC(=O)CCCC(C)C)[C@@H](C)O)C(C)C)C(C)C)[C@@H](C)CC)[C@@H](C)OC(=O)[C@H](C(C)C)NC1=O [Compound 35, [D-Leu^13]-KF]	9.58E−07	124	2650	1170	2.10E−06	3790	1.62E−06	771	3390	200	8.04E−07	2280	158	3.46E−07	871	905	3530	1.79E−06	717	3240	TGI IGROV [7]: 1.53E−06 Molar; GI50 [8]: 684 nM; TGI IGROV-ET [8]: 1.49E−06 Molar; CC50 [8]: 3260 nM; GI50 [9]: 878 nM; TGI HELA [9]: 1.74E−07 Molar; CC50 [9]: 3430 nM; GI50 [10]: 13.3 nM; TGI HELA-APL [10]: 1.31E−06 Molar; CC50 [10]: 6700 nM; GI50 [11]: 1230 nM; TGI K-562 [11]: 2.30E−06 Molar; CC50 [11]: 4280 nM; GI50 [12]: 751 nM; TGI PANC-1 [12]: 1.87E−06 Molar; CC50 [12]: 4670 nM
C/C=C1\NC(=O)[C@H](Cc2ccccc2)NC(=O)[C@@H](C(C)C)NC(=O)[C@@H]([C@@H](C)CC)NC(=O)[C@H](NC(=O)[C@H](NC(=O)[C@H](CCCN)NC(=O)[C@H]2CCCN2C(=O)[C@H](NC(=O)[C@@H](NC(=O)[C@@H](NC(=O)[C@@H](Cc2ccccc2)NC(=O)CCCC(C)C)[C@@H](C)O)C(C)C)C(C)C)[C@@H](C)CC)[C@@H](C)OC(=O)[C@H](C(C)C)NC1=O [Compound 36, [D-Phe^13]-KF]	5.14E−08	4.81	990	154	7.21E−07	2200	1.21E−06	398	2840	136	9.63E−07	2440	300	9.63E−07	2150	266	2490	6.75E−07	144	2500	TGI IGROV [7]: 9.90E−07 Molar; GI50 [8]: 852 nM; TGI IGROV-ET [8]: 1.74E−06 Molar; CC50 [8]: 3550 nM; GI50 [9]: 7.86 nM; TGI HELA [9]: 9.50E−08 Molar; CC50 [9]: 701 nM; GI50 [10]: 81.9 nM; TGI HELA-APL [10]: 6.55E−06 Molar; CC50 [10]: 6550 nM; GI50 [11]: 420 nM; TGI K-562 [11]: 1.25E−06 Molar; CC50 [11]: 2900 nM; GI50 [12]: 6.62 nM; TGI PANC-1 [12]: 2.73E−08 Molar; CC50 [12]: 976 nM
C/C=C1\NC(=O)[C@H](Cc2ccccc2)NC(=O)[C@@H](C(C)C)NC(=O)[C@@H]([C@@H](C)CC)NC(=O)[C@H](NC(=O)[C@H](NC(=O)[C@H](CCCN)NC(=O)[C@H]2CCCN2C(=O)[C@H](NC(=O)[C@@H](NC(=O)[C@@H](NC(=O)[C@H]2CCCN2C(=O)CCCC(C)C)[C@@H](C)O)C(C)C)C(C)C)[C@@H](C)CC)[C@@H](C)OC(=O)[C@H](C(C)C)NC1=O [Compound 37, [D-Pro^13]-KF]	3.90E−08	17.4	813	76.6	2.76E−07	1300	6.78E−06	391	6780	114	1.02E−06	2970	1780	4.30E−06	6780	228	1960	5.81E−07	165	2550	TGI IGROV [7]: 8.27E−07 Molar; GI50 [8]: 1210 nM; TGI IGROV-ET [8]: 2.24E−06 Molar; CC50 [8]: 4150 nM; GI50 [9]: 12.9 nM; TGI HELA [9]: 2.83E−08 Molar; CC50 [9]: 62 nM; GI50 [10]: 888 nM; TGI HELA-APL [10]: 2.01E−06 Molar; CC50 [10]: 4550 nM; GI50 [11]: 684 nM; TGI K-562 [11]: 1.48E−06 Molar; CC50 [11]: 3200 nM; GI50 [12]: 15.4 nM; TGI PANC-1 [12]: 3.12E−08 Molar; CC50 [12]: 62.8 nM
C/C=C1\NC(=O)[C@H](Cc2ccccc2)NC(=O)[C@@H](C(C)C)NC(=O)[C@@H]([C@@H](C)CC)NC(=O)[C@H](NC(=O)[C@H](NC(=O)[C@H](CCCN)NC(=O)[C@H]2CCCN2C(=O)[C@H](NC(=O)[C@@H](NC(=O)[C@@H](NC(=O)[C@@H](NC(=O)CCCC(C)C)C(C)C)[C@@H](C)O)C(C)C)C(C)C)[C@@H](C)CC)[C@@H](C)OC(=O)[C@H](C(C)C)NC1=O [Compound 38, [Val^13]-KF]	9.88E−07	307	2440	805	1.68E−06	3550	2.12E−06	1160	3880	1290	2.40E−06	4470	1120	1.94E−06	3360	1660	4220	2.65E−06	1010	3530	TGI IGROV [7]: 1.89E−06 Molar; GI50 [8]: 1970 nM; TGI IGROV-ET [8]: 2.97E−06 Molar; CC50 [8]: 4490 nM; GI50 [9]: 46 nM; TGI HELA [9]: 1.55E−07 Molar; CC50 [9]: 583 nM; GI50 [10]: 1850 nM; TGI HELA-APL [10]: 2.88E−06 Molar; CC50 [10]: 4490 nM; GI50 [11]: 1280 nM; TGI K-562 [11]: 2.28E−06 Molar; CC50 [11]: 4050 nM; GI50 [12]: 25.4 nM; TGI PANC-1 [12]: 1.20E−07 Molar; CC50 [12]: 988 nM
